Experimental data from paper PMC6003189, “Molecular and biochemical characterization of a novel isoprene synthase from Metrosideros polymorpha” (BMC Plant Biology, 2018).

System: T1, MpIspS
T1 construct: gene IspS
Settings: 50 mM MOPS pH 6.0, 5 mM Mn^2+, 50 °C, 10 min; fit below 15 mM DMAPP

Compound: CC(C)=CCOP(=O)(O)OP(=O)(O)O [DMAPP]
- Km: 8.11 mM
